Experimental data reported in patent US11712438B2, “Phenyl derivatives as PGE2 receptor modulators” (IDORSIA PHARMACEUTICALS LTD, priority 2017, dated 2023).

What was measured:
Assay in all cases: cell-based
[1] = molecular target: EP2 (Homo sapiens, UniProt P43116);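 note: SF295 glioblastoma cells with endogenous EP2 only, PGE2-stimulated cAMP accumulation read by HTRF competitive immunoassay, 45 min pre-incubation then 30 min at room temperature, IBMX in buffer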
[2] = molecular target: EP4 (Homo sapiens, UniProt P35408);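 note: inhibition of PGE2-evoked (6 nM) cAMP accumulation in BT549 breast cancer cells endogenously expressing EP4, cAMP read by HTRF competitive immunoassay after 30 min at room temperature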
EP4, sequence (P35408 whole entry): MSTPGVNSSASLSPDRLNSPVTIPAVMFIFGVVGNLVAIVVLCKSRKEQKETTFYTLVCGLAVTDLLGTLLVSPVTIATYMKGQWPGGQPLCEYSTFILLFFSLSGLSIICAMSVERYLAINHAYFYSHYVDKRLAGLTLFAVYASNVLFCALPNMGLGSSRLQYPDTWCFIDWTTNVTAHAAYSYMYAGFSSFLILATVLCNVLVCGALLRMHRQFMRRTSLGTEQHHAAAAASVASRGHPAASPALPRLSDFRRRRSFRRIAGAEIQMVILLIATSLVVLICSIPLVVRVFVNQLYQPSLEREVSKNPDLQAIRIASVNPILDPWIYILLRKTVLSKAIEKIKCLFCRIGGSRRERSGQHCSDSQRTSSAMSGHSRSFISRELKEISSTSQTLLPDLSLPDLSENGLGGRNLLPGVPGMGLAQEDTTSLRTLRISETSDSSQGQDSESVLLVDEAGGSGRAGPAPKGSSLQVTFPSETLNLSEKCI

[3] = molecular target: PTRGER4 (EP4) (Homo sapiens, UniProt P35408);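 note: assay plate preincubated 15 min at 37 °C, after which PGE2 was added at 20 nM final and incubation continued 120 min at 37 °C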
PTRGER4 (EP4), sequence (P35408 whole entry): as above
Source text: The assay is using the PathHunter™ HEK 293 PTGER2 and PTGER4 b-arrestin cell lines from DiscoverX. The system is based on the Enzyme Fragment Complementation Technology. Two complementing fragments of the b-galactosidase enzyme are expressed within stably transfected cells. The larger portion of b-gal, termed EA for Enzyme Acceptor, is fused to the C-terminus of b-arrestin 2. The smaller fragment, termed ProLink™ tag, is fused to PTGER2 (EP2) or PTRGER4 (EP4) at the C-terminus. Upon activation, b-arrestin is recruited which forces the interaction of ProLink and EA, allowing complementation of the two fragments of b-gal and the formation of a functional enzyme which is capable of hydrolysing the substrate and generating a chemiluminescent signal.
The HEK 293 PTGER4 b-arrestin cells (DiscoverX 93-030-4C1) are detached from culture dishes with a cell dissociation buffer (Invitrogen, 13151-014), and collected in growing medium (GM: DMEM+Glutamax-I (Invitrogen 32430)/10% FCS, 1% Penicilin/streptomycin). 5000 cells per well of a 384 well plate (white with white bottom Greiner 781080) are seeded in 20 ul per well of GM. Plate is incubated at 37° C., 5% CO2 for 24 hours.
Stock solutions of test compounds are made at a concentration of 10 mM in DMSO, and serially diluted in DMSO to concentrations required for inhibition dose response curves (tested concentration range 10 μM-2 nM or 1 μM-0.2 nM).
PGE2 (Cayman 14010, stock solution: 100 uM in DMSO) is used as agonist at 20 nM final concentration, corresponding to EC80.
Five microliters of diluted compounds are transferred into the assay plate. Plate is pre-incubated 15 minutes at 37° C. Then five microliters of PGE2 (final conc. 20 nM) are transferred into the assay plate. Plate is incubated 120 minutes at 37° C.
Twelve μl of reagent are transferred to the assay plate and incubate for 1 hour at room temperature in the dark. Luminescence counts are read on a BMG Fluostar Optima reader according to manufacturers instructions.
For each compound concentration calculate of the percentage of activity compared to DMSO control value as average±STDEV. (each concentration is measured in duplicate)
When compounds were measured multiple times, mean values are given.

[4] = molecular target: PTGER2 (EP2) (Homo sapiens, UniProt P43116)
PTGER2 (EP2), sequence (P43116 whole entry): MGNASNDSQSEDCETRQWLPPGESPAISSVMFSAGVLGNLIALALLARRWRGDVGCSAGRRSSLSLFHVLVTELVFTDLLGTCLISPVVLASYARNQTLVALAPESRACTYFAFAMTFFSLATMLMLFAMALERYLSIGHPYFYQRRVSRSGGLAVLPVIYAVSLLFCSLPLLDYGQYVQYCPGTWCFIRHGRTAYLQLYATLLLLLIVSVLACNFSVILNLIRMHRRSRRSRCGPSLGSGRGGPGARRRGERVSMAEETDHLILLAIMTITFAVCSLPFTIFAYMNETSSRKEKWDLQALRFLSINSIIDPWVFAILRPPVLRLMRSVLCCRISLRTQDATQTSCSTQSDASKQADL

EP2, sequence (P43116 whole entry): as above

SMILES | IC50 [1] [nM] | IC50 [2] [nM] | IC50 [3] [nM] | IC50 [4] [nM]
CCOc1cc(-c2cc(NCCc3c(F)cc(Br)cc3F)ncn2)ccc1-c1nnn[nH]1 [Example 23, [2-(4-Bromo-2,6-difluoro-phenyl)-ethyl]-{6-[3-ethoxy-4-(1H-tetrazol-5yl)-phenyl]-pyrimidin-4-yl}-amine] | 28 | 61 | 60 | 73
O=C(O)c1ccc(-c2cc(NCCc3c(F)cc(Br)cc3F)ncn2)s1 [Example 26, 5-{6-[2-(4-Bromo-2,6-difluoro-phenyl)-ethylamino]-pyrimidin-4-yl}-thiophene-2-carboxylic acid] | 46 | 115 | 104 | 149
CCOc1c(C(=O)O)sc(-c2cc(NCCc3c(F)cc(Br)cc3F)ncn2)c1Cl [Example 27, 5-{6-[2-(4-Bromo-2,6-difluoro-phenyl)-ethylamino]-pyrimidin-4-yl}-4-chloro-3-ethoxy-thiophene-2-carboxylic acid] | 50 | 97 | 168 | 23
Cc1cc(-c2cc(NCCc3c(F)cc(Br)cc3F)ncn2)sc1C(=O)O [Example 28, 5-{6-[2-(4-Bromo-2,6-difluoro-phenyl)-ethylamino]-pyrimidin-4-yl}-3-methyl-thiophene-2-carboxylic acid] | 41 | 41 | 80 | 49
CCc1cc(-c2cc(NCCc3c(F)cc(Br)cc3F)ncn2)sc1C(=O)O [Example 29, 5-{6-[2-(4-Bromo-2,6-difluoro-phenyl)-ethylamino]-pyrimidin-4-yl}-3-ethyl-thiophene-2-carboxylic acid] | 23 | 12 | 20 | 29
O=C(O)c1sc(-c2cc(NCCc3c(F)cc(Br)cc3F)ncn2)cc1Cl [Example 31, 5-{6-[2-(4-Bromo-2,6-difluoro-phenyl)-ethylamino]-pyrimidin-4-yl}-3-chloro-thiophene-2-carboxylic acid] | 8 | 14 | 100 | 39
CCCc1cc(-c2cc(NCCc3c(F)cc(Br)cc3F)ncn2)ccc1C(=O)O [Example 35, 4-{6-[2-(4-Bromo-2,6-difluoro-phenyl)-ethylamino]-pyrimidin-4-yl}-2-propyl-benzoic acid] | 86 | 433 | 242 | 109
CCCOc1cc(-c2cc(NCCc3c(F)cc(Br)cc3F)ncn2)ccc1C(=O)O [Example 36, 4-{6-[2-(4-Bromo-2,6-difluoro-phenyl)-ethylamino]-pyrimidin-4-yl}-2-propoxy-benzoic acid] | 91 | 951 | 684 | 70
CC(C)Cc1cc(-c2cc(NCCc3c(F)cc(Br)cc3F)ncn2)ccc1C(=O)O [Example 38, 4-{6-[2-(4-Bromo-2,6-difluoro-phenyl)-ethylamino]-pyrimidin-4-yl}-2-isobutyl-benzoic acid] | 128 | 81 | 202 | 277
CCCc1cc(-c2cc(NCCc3c(F)cc(Br)cc3F)ncn2)cc(F)c1C(=O)O [Example 39, 4-{6-[2-(4-Bromo-2,6-difluoro-phenyl)-ethylamino]-pyrimidin-4-yl}-2-fluoro-6-propyl-benzoic acid] | 164 | 697 | 349 | 122
O=C(O)c1ccc(-c2cc(NCCc3c(F)cc(Br)cc3F)ncn2)cc1OC(F)F [Example 41, 4-{6-[2-(4-Bromo-2,6-difluoro-phenyl)-ethylamino]-pyrimidin-4-yl}-2-difluoromethoxy-benzoic acid] | 20 | 107 | 342 | 92
O=C(O)c1ccc(-c2cc(NCCc3c(F)cc(Br)cc3F)ncn2)cc1OC1CCC1 [Example 42, 4-{6-[2-(4-Bromo-2,6-difluoro-phenyl)-ethylamino]-pyrimidin-4-yl}-2-cyclobutoxy-benzoic acid] | 50 | 297 | 241 | 59
